Assays:
Set-up in all cases: species or system athymic female NCR-Nu Mice
[1] = system: MCF-7(ER+) breast tumor xenografts; test: In vivo localization (biodistribution) in athymic female nude mice bearing subcutaneous MCF-7 tumor xenografts
Method: (§1) In vivo localization of 11β-ethyl-17α-(Z)-[^125 I](iodovinyl)estra-3,17β-diol (5) and a control compound 16α-[^125 I]iodovinyl-3,17β-estradiol (commercially available from DuPont New England Nuclear, MA) was determined in athymic female NCR-Nu Mice (purchased from Simonsen Laboratories, Gilroy, Calif.) bearing subcutaneous MCF-7(ER+) breast tumor xenografts. Prior to injection of the compounds, the mice were each implanted with fragments of MCF-7 breast tumor (approximately 2 cubic millimeters) in the subcutis of the left flank. At approximately the same time, a 1.7 mg estradiol pellet (Innovative Research of America, Toledo, Ohio) was implanted in the scapular region. The tumors were allowed to grow until they reached between 50 and 200 mg by visual inspection (approximately four to five weeks) prior to injection of the test compounds. One day prior to injection of the test compounds, the estradiol pellet was removed.
(§2) The mice were each injected via tail vein with between 3 (1.1×10^5 Bq) and 6 μCi ([…]) ^125 I in approximately 50 μL of phosphate buffered saline. The mice were sacrificed at various time intervals. After exsanguination, the selected organ/tissue were excised, weighed and radioactivity measured in a gamma counter. The counts per minute (cpm) of 125I in each tissue was determined and expressed as cpm per gram of tissue per injected dose multiplied by 100 (percent injected dose/gram).

[2] = system: MCF-7 tumors located intraperitoneally; test: In vivo localization (biodistribution) in athymic female nude mice bearing intraperitoneal MCF-7 tumors; details: for Percent Injected Dose/Gram, muscle: mouse, in vivo, ip
Method: as §1, §2
The procedure of Example 3 was followed except each mouse was inoculated intraperitoneally with MCF-7 breast carcinoma cell line (7.5×10^6 cell/50 μL) rather than implanted subcutaneously with MCF-7 breast tumor. One day prior to this procedure, a 1.7 mg estradiol pellet was implanted subcutaneously in the scapular region. The tumor cells were allowed to form solid tumor nodules for 4 to 6 weeks prior to injection of the test compounds.

[3] = system: MCF-7(ER+) breast tumor xenografts; test: In vivo biolocalization with gamma detecting probe, tumor/background ratio, MCF-7 (ER+) tumor; details: mouse, in vivo
Method: (§3) In vivo biolocalization of 11β-ethyl-17α-(Z)-[^125 I](iodovinyl)estra-3,17β-diol (5) and a control compound 16α-[^125 I](iodovinyl)-3,17β-estradiol was determined in athymic female NCR-Nu Mice bearing subcutaneous MCF-7(ER+) breast tumor xenografts and MDA-MB-231 (ER-) breast tumor xenografts. The mice were at least 5 weeks old prior to injection into the right-hand flank with […] of MCF-7 breast carcinoma cells ([…]). One day prior to this procedure, the mice were implanted subcutaneously with a 1.7 mg estradiol pellet in the scapular region. Four to six weeks post-injection of the MCF-7 cells the estradiol pellet was removed and the mice inoculated in the left hind flank with 75 μL NDA-MB-231 breast tumor cells ([…]). Seven to ten days prior to injection of the test compounds, an estradiol pellet was again implanted in the scapular region. One to two days prior to injection of the test compounds, the estradiol pellet was removed, and 5 mice arbitrarily assigned to each test group.
(§4) The mice were each injected via tail vein with between 3 ([…]) and […] ([…]) 125 iodine in approximately […] of phosphate-buffered saline. At various time intervals after injection of the test compounds, each group of mice was anesthetized with methoxyflurane in order to measure the radioactivity over the ER+ and ER- tumors and the front leg for use as a background and the thoraxic area which served as a blood pool control using a gamma detecting probe (RIGS ^TM Model 1001 control unit, Neoprobe Corporation, Columbus, Ohio). Three 20 to 60 second counts were recorded at each area measured at each time point.
(§5) ^c Tu/Bkg = Mean(1-5) of (mean tumor countsn - mean foreleg
(§6) background countsn)/mean foreleg background

[4] = system: MDA-MB-231 (ER-) breast tumor xenografts; test: In vivo biolocalization with gamma detecting probe, tumor/background ratio, MDA-MB-231 (ER-) tumor; details: mouse, in vivo
Method: as §3, §4, §5, §6

CC[C@H]1C[C@@]2(C)[C@@H](CC[C@@]2(O)/C=C\[125I])[C@@H]2CCc3cc(O)ccc3[C@@H]12 [Compound 5, 11β-ethyl-17α-(Z)-[^125 I](iodovinyl)estra-3,17β-diol]
radioactivity in the uteri and tumors ([1]; 48 hours post-injection, uteri and tumors, subcutaneous MCF-7): still contain a significant amount of radioactivity
Percent Injected Dose/Gram, fat ([1]; Fat, 48 hours, tail vein, subcutaneous MCF-7, mean, n = 5): 0.00 Percent Injected Dose/Gram
Percent Injected Dose/Gram, muscle ([1]; 24 hours, tail vein, subcutaneous MCF-7, mean, n = 5): 0.00 Percent Injected Dose/Gram
Percent Injected Dose/Gram, muscle ([1]; 48 hours, tail vein, subcutaneous MCF-7, mean, n = 5): 0.00 Percent Injected Dose/Gram
binding affinity in vivo with retention of the targeted-site ([1]; subcutaneous MCF-7, conclusion in words): high binding affinity in vivo with retention of the targeted-site
radioactivity in the uteri and tumors ([2]; 48 hours post-injection, uteri and tumors, intraperitoneal MCF-7): still contain a significant amount of radioactivity
Percent Injected Dose/Gram, fat ([2]; Fat, 48 hours, tail vein, intraperitoneal MCF-7, mean, n = 5): 0.00 Percent Injected Dose/Gram
binding affinity in vivo with retention of the targeted-site ([2]; intraperitoneal MCF-7, conclusion in words): high binding affinity in vivo with retention of the targeted-site
Percent Injected Dose/Gram, muscle ([2]; 1440 min): 0.00 Percent Injected Dose/Gram
Percent Injected Dose/Gram, muscle ([2]; 2880 min): 0.00 Percent Injected Dose/Gram
Tumor/Background Ratio (Tu/Bkg) [3]: 4.70 ± 1.85
tumor to background ratios (in words) [3]: good tumor to background ratios
tumor to background ratios / localization at the tumor site (in words) [3]: maintained a high tumor to background ratios
Tumor/Background Ratio (Tu/Bkg) ([3]; 120 min): 4.74 ± 2.04
Tumor/Background Ratio (Tu/Bkg) ([3]; 360 min): 7.32 ± 0.60
Tumor/Background Ratio (Tu/Bkg) ([3]; 1440 min): 3.53 ± 1.30
Tumor/Background Ratio (Tu/Bkg) ([3]; 2880 min): 1.79 ± 1.23
Tumor/Background Ratio (Tu/Bkg) [4]: 2.44 ± 1.83
Tumor/Background Ratio (Tu/Bkg) ([4]; 120 min): 4.34 ± 1.37
Tumor/Background Ratio (Tu/Bkg) ([4]; 360 min): 4.44 ± 2.62
Tumor/Background Ratio (Tu/Bkg) ([4]; 1440 min): 0.87 ± 0.54
Tumor/Background Ratio (Tu/Bkg) ([4]; 2880 min): 0.03 ± 0.34

From patent US5427766A, “Radiolabeled steroids for use in radiochemical-guided surgery” (priority 1993, dated 1995)
